Measured values from ChEMBL document CHEMBL1681651, “A broad spectrum anticancer nucleoside with selective toxicity against human colon cells in vitro” (2011).

How the values were obtained:
Format in all cases: functional
HCT-15 [1] = assay: Growth inhibition of human HCT15 cells assessed as cell growth at 1 uM after 48 hrs by SRB assay; settings: HCT-15, 48 h, read-out: Activity
SK-MEL-2 [2] = assay: Growth inhibition of human SK-MEL-2 cells assessed as cell growth at 100 uM after 48 hrs by SRB assay; settings: SK-MEL-2, 48 h, read-out: Activity
MCF7 = assay: Growth inhibition of human MCF7 cells assessed as cell growth at 10 uM after 48 hrs by SRB assay; settings: MCF7, 48 h, read-out: Activity
SN12C = assay: Growth inhibition of human SN12C cells assessed as cell growth at 0.1 uM after 48 hrs by SRB assay; settings: read-out: Activity
HCT-15 [3] = assay: Growth inhibition of human HCT15 cells assessed as cell growth at 100 uM after 48 hrs by SRB assay; settings: HCT-15, 48 h, read-out: Activity
UACC-62 = assay: Growth inhibition of human UACC62 cells assessed as cell growth at 100 uM after 48 hrs by SRB assay; settings: UACC-62, 48 h, read-out: Activity
UO-31 = assay: Growth inhibition of human UO31 cells assessed as cell growth at 1 uM after 48 hrs by SRB assay; settings: UO-31, 48 h, read-out: Activity
SK-MEL-2 [4] = assay: Growth inhibition of human SK-MEL-2 cells assessed as cell growth at 1 mM after 48 hrs by SRB assay; settings: SK-MEL-2, 48 h, read-out: Activity
HCC 2998 [5] = assay: Growth inhibition of human HCC2998 cells after 48 hrs by […] growth inhibition assay; settings: HCC 2998, 48 h
PC-3 = assay: Growth inhibition of human PC3 cells after 48 hrs by […] growth inhibition assay; settings: PC-3, 48 h, read-out: LC50 (the source's name)
OVCAR-3 [6] = assay: Growth inhibition of human OVCAR3 cells assessed as cell growth at 100 uM after 48 hrs by SRB assay; settings: OVCAR-3, 48 h, read-out: Activity
HCC 2998 [7] = assay: Growth inhibition of human HCC2998 cells assessed as cell growth at 1 mM after 48 hrs by SRB assay; settings: HCC 2998, 48 h, read-out: Activity
EKVX [8] = assay: Growth inhibition of human EKVX cells after 48 hrs by […] growth inhibition assay
Malme-3M = assay: Growth inhibition of human MALME-3M cells assessed as cell growth at 100 uM after 48 hrs by SRB assay; settings: read-out: Activity
SF-295 = assay: Growth inhibition of human SF295 cells assessed as cell growth at 100 uM after 48 hrs by SRB assay; settings: SF-295, 48 h, read-out: Activity
HOP-62 = assay: Growth inhibition of human HOP62 cells assessed as cell growth at 1 mM after 48 hrs by SRB assay; settings: HOP-62, 48 h, read-out: Activity
CCRF-CEM = assay: Growth inhibition of human CCRF-CEM cells after 48 hrs by […] growth inhibition assay
SF-539 = assay: Growth inhibition of human SF539 cells assessed as cell growth at 10 uM after 48 hrs by SRB assay; settings: SF-539, 48 h, read-out: Activity
NCI-H23 = assay: Growth inhibition of human NCI-H23 cells assessed as cell growth at 1 uM after 48 hrs by SRB assay; settings: NCI-H23, 48 h, read-out: Activity
[9] = Growth inhibition of human […] cells assessed as cell growth at 0.1 uM after 48 hrs by SRB assay; settings: read-out: Activity
OVCAR-8 [10] = assay: Growth inhibition of human OVCAR8 cells assessed as cell growth at 100 uM after 48 hrs by SRB assay; settings: OVCAR-8, 48 h, read-out: Activity
DU-145 [11] = assay: Growth inhibition of human DU145 cells assessed as cell growth at 10 uM after 48 hrs by SRB assay; settings: DU-145, 48 h, read-out: Activity
A549 = assay: Growth inhibition of human A549 cells assessed as cell growth at 1 uM after 48 hrs by SRB assay; settings: A549, 48 h, read-out: Activity
HCT-116 = assay: Growth inhibition of human HCT116 cells assessed as cell growth at 10 uM after 48 hrs by SRB assay; settings: HCT-116, 48 h, read-out: Activity
OVCAR-3 [12] = assay: Growth inhibition of human OVCAR3 cells assessed as cell growth at 0.1 uM after 48 hrs by SRB assay; settings: OVCAR-3, 48 h, read-out: Activity
CAKI-1 = assay: Growth inhibition of human Caki1 cells assessed as cell growth at 10 uM after 48 hrs by SRB assay; settings: CAKI-1, 48 h, read-out: Activity
EKVX [13] = assay: Growth inhibition of human EKVX cells assessed as cell growth at 1 uM after 48 hrs by SRB assay; settings: read-out: Activity
EKVX [14] = assay: Growth inhibition of human EKVX cells assessed as cell growth at 0.1 uM after 48 hrs by SRB assay; settings: read-out: Activity
DU-145 [15] = assay: Growth inhibition of human DU145 cells assessed as cell growth at 1 mM after 48 hrs by SRB assay; settings: DU-145, 48 h, read-out: Activity
MDA-MB-435 = assay: Growth inhibition of human MDA-MB-435 cells after 48 hrs by SRB assay; settings: MDA-MB-435, 48 h
COLO 205 = assay: Growth inhibition of human COLO205 cells assessed as cell growth at 10 uM after 48 hrs by SRB assay; settings: COLO 205, 48 h, read-out: Activity
HOP-92 = assay: Growth inhibition of human HOP92 cells assessed as cell growth at 1 uM after 48 hrs by SRB assay; settings: HOP-92, 48 h, read-out: Activity
OVCAR-8 [16] = assay: Growth inhibition of human OVCAR8 cells assessed as cell growth at 0.1 uM after 48 hrs by SRB assay; settings: OVCAR-8, 48 h, read-out: Activity
NCI-H226 = assay: Growth inhibition of human NCI-H226 cells after 48 hrs by […] growth inhibition assay; settings: NCI-H226, 48 h
[17] = read-out: LC50 (the source's name)
[18] = read-out: pLC50 (the source's name) (converted)

With `CNC(=O)NC[C@H]1O[C@@H](n2cnc3c(NC(=O)Nc4ccccc4)ncnc32)[C@H](O[Si](C)(C)C(C)(C)C)[C@@H]1CC(=O)N(C)OC` the growth at 1 µM (HCT-15 [1]) was 94%, the growth at 100 µM (SK-MEL-2 [2]) was 62% and the growth at 10 µM (MCF7) was 96%. For the same molecule, the growth at 0.1 µM (SN12C) was 106%, the growth at 100 µM (HCT-15 [3]) was 40% and the growth at 100 µM (UACC-62) was 69%. It also gave a growth at 1 µM (UO-31) of 89%, a growth at 1000 µM (SK-MEL-2 [4]) of -5% and a GI50 (HCC 2998 [5]; read-out: GI50) of 30.6 µM. For the same molecule, the CC50 (HCC 2998 [5]; [17]) was > 100 µM, the TGI (HCC 2998 [5]; read-out: TGI) was > 100 µM and the GI50 (HCC 2998 [5]; read-out: pGI50 (converted)) was 30.9 µM. For the same molecule, the CC50 (HCC 2998 [5]; [18]) was > 100 µM, the TGI (HCC 2998 [5]; read-out: pTGI (converted)) was > 100 µM and the CC50 (PC-3) was > 100 µM. The growth at 100 µM (OVCAR-3 [6]) was 41%, the growth at 1000 µM (HCC 2998 [7]) was 33% and the GI50 (EKVX [8]; read-out: GI50) was 26.4 µM. For the same molecule, the CC50 (EKVX [8]; [17]) was > 100 µM, the TGI (EKVX [8]; read-out: TGI) was > 100 µM and the GI50 (EKVX [8]; read-out: pGI50 (converted)) was 26.3 µM. The CC50 (EKVX [8]; [18]) was > 100 µM, the TGI (EKVX [8]; read-out: pTGI (converted)) was > 100 µM and the growth at 100 µM (Malme-3M) was 52%. For the same molecule, the growth at 100 µM (SF-295) was 48%, the growth at 1000 µM (HOP-62) was 28% and the GI50 (CCRF-CEM; read-out: GI50) was 6.37 µM. For the same molecule, the LC50 (lethal concentration, 50% net cell kill) (CCRF-CEM; read-out: LC50) was > 100 µM, the TGI (CCRF-CEM; read-out: TGI) was > 100 µM and the GI50 (CCRF-CEM; read-out: pGI50 (converted)) was 6.31 µM. For the same molecule, the LC50 (lethal concentration, 50% net cell kill) (CCRF-CEM; read-out: pLC50 (converted)) was > 100 µM, the TGI (CCRF-CEM; read-out: pTGI (converted)) was > 100 µM and the growth at 10 µM (SF-539) was 89%. The growth at 1 µM (NCI-H23) was 103%, the growth at 0.1 µM [9] was 80% and the growth at 100 µM (OVCAR-8 [10]) was 48%. The growth at 10 µM (DU-145 [11]) was 104%, the growth at 1 µM (A549) was 100% and the growth at 10 µM (HCT-116) was 89%. It also gave a growth at 0.1 µM (OVCAR-3 [12]) of 95%, a growth at 10 µM (CAKI-1) of 76% and a growth at 1 µM (EKVX [13]) of 95%. The growth at 0.1 µM (EKVX [14]) was 94%, the growth at 1000 µM (DU-145 [15]) was 16% and the GI50 (MDA-MB-435; read-out: GI50) was 10.9 µM. For the same molecule, the LC50 (MDA-MB-435; read-out: LC50) was > 100 µM, the TGI (MDA-MB-435; read-out: TGI) was > 100 µM and the GI50 (MDA-MB-435; read-out: pGI50 (converted)) was 11 µM. The LC50 (MDA-MB-435; read-out: pLC50 (converted)) was > 100 µM, the TGI (MDA-MB-435; read-out: pTGI (converted)) was > 100 µM and the growth at 10 µM (COLO 205) was 90%. For the same molecule, the growth at 1 µM (HOP-92) was 93%, the growth at 0.1 µM (OVCAR-8 [16]) was 107% and the GI50 (NCI-H226; read-out: GI50) was 41.9 µM. The CC50 (NCI-H226; [17]) was > 100 µM, the TGI (NCI-H226; read-out: TGI) was > 100 µM and the GI50 (NCI-H226; read-out: pGI50 (converted)) was 41.7 µM. For the same molecule, the CC50 (NCI-H226; [18]) was > 100 µM and the TGI (NCI-H226; read-out: pTGI (converted)) was > 100 µM.
Molecule `CNC(=O)OC[C@H]1O[C@@H](n2cnc3c(NC(=O)Nc4ccccc4)ncnc32)[C@H](O[Si](C)(C)C(C)(C)C)[C@@H]1O[Si](C)(C)C(C)(C)C` has a growth at 10 µM (MCF7) of 87.8%, a growth at 10 µM (SF-539) of 97.1% and a growth at 10 µM (DU-145 [11]) of 106%. The growth at 10 µM (HCT-116) was 66.7%, the growth at 10 µM (CAKI-1) was 106% and the growth at 10 µM (COLO 205) was 106%.
